Measurements as given in patent publication US12319672B2, “Alpha-D-galactopyranoside derivatives” (Idorsia Pharmaceuticals Ltd, priority 2019, dated 2025).

Legend:
human Gal-3 (hGal-3) = human Gal-3 (hGal-3) (Homo sapiens (Human), UniProt P17931); assay: Competitive binding assay: binding of biotinylated hGal-3 to microplate-adsorbed asialofetuin (ASF); settings: Activity on hGal-3; mean values of several measurements
Summary of the method: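 Biotinylated hGal-3 (300-1000 ng/mL) bound to ASF-coated wells with serially diluted compound, 3 h at 4° C. After washing, bound protein was detected with streptavidin-peroxidase (80 ng/mL, 1 h, 4° C) and ABTS substrate; IC50 values are means of several measurements.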

human Gal-1 (hGal-1) = assay: Competitive binding assay: binding of biotinylated hGal-1 to microplate-adsorbed asialofetuin (ASF); settings: Activities on hGal-1; mean values of several measurements
Summary of the method: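 Compounds diluted in DMSO competed with biotinylated hGal-3 or hGal-1 (300-1000 ng/mL) for binding to plate-adsorbed asialofetuin for 3 h at 4° C. Bound galectin was detected with streptavidin-peroxidase (80 ng/mL, 1 h, 4° C) and ABTS substrate; IC50 reported as mean of several measurements.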

Chain of human Gal-1 (hGal-1) (P09382 2-135 limits assumed): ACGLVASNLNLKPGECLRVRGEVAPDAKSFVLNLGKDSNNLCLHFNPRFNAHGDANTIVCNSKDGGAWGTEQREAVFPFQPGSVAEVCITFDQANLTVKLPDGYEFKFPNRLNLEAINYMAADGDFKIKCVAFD
Chain of human Gal-3 (hGal-3) (P17931 whole entry): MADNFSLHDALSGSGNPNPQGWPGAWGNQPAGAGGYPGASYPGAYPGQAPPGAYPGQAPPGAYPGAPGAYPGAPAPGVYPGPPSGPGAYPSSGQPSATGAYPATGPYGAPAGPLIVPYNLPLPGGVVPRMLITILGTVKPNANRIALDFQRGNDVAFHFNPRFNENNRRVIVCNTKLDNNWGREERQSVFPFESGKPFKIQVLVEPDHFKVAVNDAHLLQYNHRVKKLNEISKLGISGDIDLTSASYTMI

| IC50 (human Gal-3 (hGal-3)) [nM] | IC50 (human Gal-1 (hGal-1)) [nM] | Structure (SMILES) |
| --- | --- | --- |
| 210 | 1990 | OC[C@H]1O[C@H](Cc2cc(C3CCC(O)CC3)on2)[C@H](O)[C@@H](n2cc(-c3cc(F)c(F)c(F)c3)nn2)[C@H]1O (stereo partly drawn) [Example 2.13, (2R,3R,4R,5R,6R)-2-((5-(4-hydroxycyclohexyl)isoxazol-3-yl)methyl)-6-(hydroxymethyl)-4-(4-(3,4,5-trifluorophenyl)-1H-1,2,3-triazol-1-yl)tetrahydro-2H-pyran-3,5-diol] |
| 44 | 700 | CO[C@@H]1[C@@H](n2cc(-c3cc(F)c(F)c(F)c3)nn2)[C@@H](O)[C@@H](CO)O[C@@H]1Cn1cc(C2CCN(C(C)=O)CC2)nn1 [Example 4.04, 1-(4-(1-(((2R,3R,4S,5R,6R)-5-hydroxy-6-(hydroxymethyl)-3-methoxy-4-(4-(3,4,5-trifluorophenyl)-1H-1,2,3-triazol-1-yl)tetrahydro-2H-pyran-2-yl)methyl)-1H-1,2,3-triazol-4-yl)piperidin-1-yl)ethan-1-one] |
| 130 | 6810 | Cc1ccc(-c2cn([C@H]3[C@@H](O)[C@@H](CO)O[C@H](Cc4cc(C(C)(C)C)no4)[C@@H]3O)nn2)c(F)c1F [Example 2.50, (2R,3R,4R,5R,6R)-2-((3-(tert-butyl)isoxazol-5-yl)methyl)-4-(4-(2,3-difluoro-4-methylphenyl)-1H-1,2,3-triazol-1-yl)-6-(hydroxymethyl)tetrahydro-2H-pyran-3,5-diol] |
| 250 | 8190 | CO[C@@H]1[C@@H](n2cc(-c3cc(F)c(F)c(F)c3)nn2)[C@@H](O)[C@@H](CO)O[C@@H]1Cc1cn(-c2ccccc2)c(=O)o1 [Example 6.05, 5-(((2R,3R,4S,5R,6R)-5-hydroxy-6-(hydroxymethyl)-3-methoxy-4-(4-(3,4,5-trifluorophenyl)-1H-1,2,3-triazol-1-yl)tetrahydro-2H-pyran-2-yl)methyl)-3-phenyloxazol-2(3H)-one] |
| 32 | 870 | CCNC(=O)N1CCC(c2cc(C[C@H]3O[C@H](CO)[C@H](O)[C@H](n4cc(-c5cc(F)c(F)c(F)c5)nn4)[C@H]3O)no2)CC1 [Example 3.27, 4-(3-(((2R,3R,4R,5R,6R)-3,5-dihydroxy-6-(hydroxymethyl)-4-(4-(3,4,5-trifluorophenyl)-1H-1,2,3-triazol-1-yl)tetrahydro-2H-pyran-2-yl)methyl)isoxazol-5-yl)-N-ethylpiperidine-1-carboxamide] |
| 230 | 4400 | C#Cc1ccc(-c2cn([C@H]3[C@@H](O)[C@@H](CO)O[C@H](Cc4cc(C(C)(C)C)on4)[C@@H]3OC)nn2)c(F)c1F [Example 2.47, (2R,3R,4S,5R,6R)-6-((5-(tert-butyl)isoxazol-3-yl)methyl)-4-(4-(4-ethynyl-2,3-difluorophenyl)-1H-1,2,3-triazol-1-yl)-2-(hydroxymethyl)-5-methoxytetrahydro-2H-pyran-3-ol] |

The remaining lines, values behind:

| Structure (SMILES) | IC50 (human Gal-3 (hGal-3)) [nM] | IC50 (human Gal-1 (hGal-1)) [nM] |
| --- | --- | --- |
| CC(C)(C)OC(=O)NC1CCC(c2cc(C[C@H]3O[C@H](CO)[C@H](O)[C@H](n4cc(-c5cc(F)c(F)c(F)c5)nn4)[C@H]3O)no2)CC1 (stereo partly drawn) [Ex 1.81] | 200 | 14500 |
| COc1ccc(-c2cn([C@H]3[C@@H](O)[C@@H](CO)O[C@H](Cc4cc(C(C)(C)C)on4)[C@@H]3OC)nn2)c(F)c1F [Ex 1.352] | 100 | 1170 |
| CO[C@@H]1[C@@H](n2cc(-c3cc(F)c(F)c(F)c3)nn2)[C@@H](O)[C@@H](CO)O[C@@H]1Cc1cc(C(C)(C)CN)no1 [Ex 1.316] | 190 | 2200 |
| CO[C@@H]1[C@@H](n2cc(-c3ccc(F)c(F)c3F)nn2)[C@@H](O)[C@@H](CO)O[C@@H]1Cc1cc(C(C)(C)C)on1 [Ex 1.193] | 120 | 1250 |
| CO[C@@H]1[C@@H](n2cc(-c3cc(F)c(F)c(F)c3)nn2)[C@@H](O)[C@@H](CO)O[C@@H]1Cc1cc(C2CCC(=O)NC2)no1 (stereo partly drawn) [Ex 1.114] | 75 | 1360 |
| CO[C@@H]1[C@@H](n2cc(-c3ccc(Cl)c(F)c3)nn2)[C@@H](O)[C@@H](CO)O[C@@H]1CC1CC(C2CCN(C(=O)OC(C)(C)C)CC2)=NO1 (stereo partly drawn) [Ex 1.116] | 170 | 1750 |
| CO[C@@H]1[C@@H](n2cc(-c3cc(F)c(F)c(F)c3)nn2)[C@@H](O)[C@@H](CO)O[C@@H]1Cc1cc(C2CCCCC2)on1 [Ex 1.65] | 560 | 14100 |
| CC(C)(C)OC(=O)N1CCC(C2=NOC(C[C@H]3O[C@H](CO)[C@H](O)[C@H](n4cc(-c5cc(F)c(F)c(F)c5)nn4)[C@H]3O)C2)CC1 (stereo partly drawn) [Ex 1.45] | 110 | 1020 |
| CO[C@@H]1[C@@H](n2cc(-c3ccc(F)c(F)c3F)nn2)[C@@H](O)[C@@H](CO)O[C@@H]1Cc1cc(C2(C)CCOCC2)no1 [Ex 1.283] | 49 | 380 |
